pKi: −log10 of the molar value.
Columns and labels:
Type in all cases: biochemical
c-KIT = target: T1, c-KIT (Homo sapiens, UniProt P10721); test: Inhibition of c-KIT, radiometric filter-binding assay; conditions: 700 μM ATP, 0.5 mg/mL pE4Y, room temperature
T1 construct: 0.02% BSA and 25 nM c-KIT
How it was run: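 Radiometric filter-binding: 25 nM c-KIT (enzyme in the Solution 2 mix) with poly(Glu,Tyr) 4:1 substrate at 0.5 mg/mL and [γ-^33P]ATP at 700 μM (both final), in HEPES pH 7.5/MgCl2/NaCl/DTT/BSA with 2.5% DMSO. Incubated 20 min at room temperature, stopped with TCA, and ^33P incorporation counted on filters. 12-point titration, final compound typically 0.01-5 μM; IC50 or Ki from curve fit.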

TAK1A-TAB fusion protein = target: T2, TAK1A-TAB fusion protein (Homo sapiens, UniProt O43318); test: TAK-1 inhibition assay, radiometric filter binding assay; conditions: 50 μM ATP, 12 μM bovine myelin basic protein, 20 nM TAK1A-TAB fusion protein
T2 construct: using 20 nM TAK1A-TAB fusion protein
T2 sequence (O43318 with tags, fused parts or gaps isoform O43318-2 limits assumed): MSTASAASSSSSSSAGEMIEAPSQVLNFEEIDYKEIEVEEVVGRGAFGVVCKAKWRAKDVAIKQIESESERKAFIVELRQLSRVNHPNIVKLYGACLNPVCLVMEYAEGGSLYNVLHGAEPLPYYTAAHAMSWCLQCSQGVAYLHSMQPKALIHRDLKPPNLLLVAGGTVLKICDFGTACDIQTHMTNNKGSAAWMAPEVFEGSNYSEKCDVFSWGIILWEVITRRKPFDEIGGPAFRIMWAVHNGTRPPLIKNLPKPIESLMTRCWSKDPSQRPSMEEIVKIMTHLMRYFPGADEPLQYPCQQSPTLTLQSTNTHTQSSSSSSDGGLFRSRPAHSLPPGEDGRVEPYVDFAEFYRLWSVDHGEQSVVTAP
Method: Compounds were screened for their ability to inhibit TAK1A kinase activity using a radiometric filter binding assay. Reactions were carried out in a solution containing Buffer A (100 mM HEPES (pH 7.5), 10 mM MgCl2), 25 mM NaCl, 2 mM DTT, and 1.5% DMSO. Final substrate concentrations in the assay were 50 μM ATP (a mixture of unlabeled ATP (Sigma Chemicals, St Louis, Mo.) and ^33P-labeled ATP (PerkinElmer Life Sciences, Boston, Mass.) for a final specific activity of 50 Ci/mol), and 12 μM bovine myelin basic protein (MBP, Vertex Pharmaceuticals, Cambridge, Mass.). Reactions were carried out at ambient temperature (˜20° C.) using 20 nM TAK1A-TAB fusion protein. Under these conditions the extent of reaction is linear with time for a period of 2 hours.
A test compound of the present invention (1 μL in DMSO) was combined with ATP and Buffer A in a final volume of 47 μL in a 96 well plate. Typically, a 6 point titration was conducted by preparing serial dilutions (from 10 mM compound stocks) with DMSO of the test compounds of the present invention in daughter plates, for final concentrations spanning 0.046 μM to 3.73 μM. The reaction was initiated by the addition of 20 μl of an enzyme stock solution consisting of TAK1A-TAB fusion (described by Sugita, T. et al. in Biochem. Biophys. Res. Comm. 2002, 297, 1277-1281), MBP, Buffer A, NaCl, and DTT. The reaction was allowed to proceed for two hours at ambient temperature, then quenched with an equal volume of 10 mM unlabeled ATP in 10% trichloroacetic acid. A 110 μL aliquot of the quenched reaction was transferred to a Multiscreen PH filter plate (Millipore, Billerica, Mass.) and allowed to incubate at ambient temperature overnight (typically 16-20 hours). Following incubation the filter plates were washed with 3×150 μL aliquots of 5% trichloroacetic acid using a modified Biotek Elx405 plate washer. A 70 μL aliquot of Microscint 20 scintillation fluid (PerkinElmer) was added to each well, and the plate was then sealed and read on a TopCount NXT microplate scintillation counter (PerkinElmer). The Ki values were determined from the rate data as a function of inhibitor concentration.

SYK = SYK (Homo sapiens, UniProt P43405); test: SYK enzyme assay, coupled enzyme assay; conditions: 200 μM ATP, 4 μM poly Gly-Tyr peptide, 30° C.
How it was run: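 Pyruvate kinase/lactate dehydrogenase-coupled NADH assay in HEPES pH 7.5 with MgCl2, NaCl, DTT and 1.5% DMSO, using 200 μM ATP, 4 μM poly Gly-Tyr and 25 nM enzyme. Compound at 30 μM final was preincubated ~10 min at 30 °C. Rates were read over 5 min at 30 °C and Ki derived.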

T1 sequence (P10721 26-976): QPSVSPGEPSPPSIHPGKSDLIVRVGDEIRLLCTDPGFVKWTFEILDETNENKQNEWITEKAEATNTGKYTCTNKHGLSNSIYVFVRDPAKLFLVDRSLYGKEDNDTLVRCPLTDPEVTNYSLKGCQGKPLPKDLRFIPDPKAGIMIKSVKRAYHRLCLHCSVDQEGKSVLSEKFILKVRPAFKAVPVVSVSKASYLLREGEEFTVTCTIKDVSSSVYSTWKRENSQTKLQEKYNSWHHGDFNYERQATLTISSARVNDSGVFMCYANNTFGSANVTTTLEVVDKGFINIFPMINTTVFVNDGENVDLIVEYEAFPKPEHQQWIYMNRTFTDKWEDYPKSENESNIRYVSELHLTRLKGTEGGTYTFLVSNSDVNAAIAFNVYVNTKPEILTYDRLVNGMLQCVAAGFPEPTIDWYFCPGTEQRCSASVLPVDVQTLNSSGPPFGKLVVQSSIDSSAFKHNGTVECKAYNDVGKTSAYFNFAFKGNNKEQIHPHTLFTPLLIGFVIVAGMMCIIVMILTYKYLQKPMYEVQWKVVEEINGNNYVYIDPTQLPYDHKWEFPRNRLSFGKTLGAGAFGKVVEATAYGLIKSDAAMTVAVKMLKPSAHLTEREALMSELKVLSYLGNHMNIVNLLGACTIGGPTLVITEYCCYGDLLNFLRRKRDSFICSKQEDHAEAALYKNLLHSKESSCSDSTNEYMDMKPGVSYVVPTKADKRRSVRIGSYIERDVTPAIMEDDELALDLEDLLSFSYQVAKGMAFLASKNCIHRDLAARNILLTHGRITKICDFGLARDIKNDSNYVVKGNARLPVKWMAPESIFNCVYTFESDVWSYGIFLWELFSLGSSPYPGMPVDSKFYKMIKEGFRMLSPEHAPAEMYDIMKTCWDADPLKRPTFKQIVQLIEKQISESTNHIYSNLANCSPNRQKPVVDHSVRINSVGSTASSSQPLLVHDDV

Row | pKi (c-KIT) | pKi (TAK1A-TAB fusion protein) | pKi (SYK) | SMILES
1 | 6.00 to 6.70 | 4.90 to 6.00 | – | Fc1cccc(-n2cnnc2-c2c[nH]c3ncc(-c4ccc(N5CCNCC5)nc4)cc23)c1F [Compound 111, 3-[4-(2,3-Difluoro-phenyl)-4H-[1,2,4]triazol-3-yl]-5-(6-piperazin-1-yl-pyridin-3-yl)-1H-pyrrolo[2,3-b]pyridine]
2 | 6.00 to 6.70 | – | – | COc1cnc2[nH]cc(-c3nncn3-c3cccc(F)c3F)c2c1 [Compound 108, 3-[4-(2,3-Difluoro-phenyl)-4H-[1,2,4]triazol-3-yl]-5-methoxy-1H-pyrrolo[2,3-b]pyridine]
3 | > 6.70 | > 6.70 | 6.00 to 6.70 | C[N+]1(C)CCN(c2ccc(-c3cnc4[nH]cc(-c5oncc5-c5cccc(F)c5F)c4c3)cc2)CC1 [Compound 155]
4 | – | – | 4.90 to 6.00 | c1ccc(-c2cnoc2-c2c[nH]c3ncccc23)cc1 [Compound 35, 3-[4-Phenyl-isoxazol-5-yl]-1H-pyrrolo[2,3-b]pyridine]
5 | > 6.70 | 6.00 to 6.70 | – | CN(C)C1CCC(c2cnc3[nH]cc(-c4oncc4-c4cccc(F)c4F)c3c2)CC1 (centres unmarked) [Compound 141, (4-{3-[4-(2,3-Difluoro-phenyl)-isoxazol-5-yl]-1H-pyrrolo[2,3-b]pyridin-5-yl}-cyclohexyl)-dimethylamine]
6 | 6.00 to 6.70 | – | – | OCc1cnc2[nH]cc(-c3oncc3-c3cccc(F)c3F)c2c1 [Compound 55, {3-[4-(2,3-Difluoro-phenyl)-isoxazol-5-yl]-1H-pyrrolo[2,3-b]pyridin-5-yl}-methanol]
7 | > 6.70 | – | – | NC(=O)c1ccc(-c2cnc3[nH]cc(-c4oncc4-c4cccc(F)c4F)c3c2)cc1 [Compound 153]
8 | – | – | 4.90 to 6.00 | Fc1ccc(F)c(-c2cnoc2-c2c[nH]c3ncccc23)c1F [Compound 41, 3-[4-(2,3,6-Trifluoro-phenyl)-isoxazol-5-yl]-1H-pyrrolo [2,3-b]pyridine]
9 | > 6.70 | 6.00 to 6.70 | – | CN1CCN(C(=O)[C@H]2C[C@@H]2c2cnc3[nH]cc(-c4oncc4-c4cccc(F)c4F)c3c2)CC1 (relative stereo) [Compound 142, trans-(2-{3-[4-(2,3-Difluoro-phenyl)-isoxazol-5-yl]-1H-pyrrolo[2,3-b]pyridin-5-yl}-cyclopropyl)-(4-methyl-piperazin-1-yl)-methanone]
10 | – | – | 4.90 to 6.00 | Fc1cccc(-c2cnoc2-c2c[nH]c3ncc(Cl)cc23)c1F [Compound 44, 3-[4-(2,3-Difluoro-phenyl)-isoxazol-5-yl]-5-chloro-1H-pyrrolo[2,3-b]pyridine]
11 | 6.00 to 6.70 | 4.90 to 6.00 | – | Cc1cnc2[nH]cc(-c3oncc3-c3cccc(F)c3F)c2c1 [Compound 46, 3-[4-(2,3-Difluoro-phenyl)-isoxazol-5-yl]-5-methyl-1H-pyrrolo[2,3-b]pyridine]

— US7446199B2, “Compositions useful as inhibitors of protein kinases” (Vertex Pharmaceuticals Incorporated, priority 2003, dated 2008)
